The subject of series [1] is Corynebacterium xerosis (DSM 20743). Put plainly: quantitative suspension test. In kind it is cell-based.
The subject of series [2] is microorganisms which cause body odor. Put plainly: in vivo sniffing tests on human test subjects suffering from severe body odor. Particulars: human test subjects with severe body odor.
The subject of series [3] is Staphylococcus epidermidis (ATCC 12228). Put plainly: quantitative suspension test. In kind it is cell-based.
The nature of series [4]: investigations into chemical properties (stability). The format is physicochemical. The source says:
In addition, in pure form, the compound according to the invention of the formula 1 is a white solid which forms a colorless solution in (cosmetic and/or pharmaceutical) carriers; furthermore, no discoloration was observed after incorporation of the compound according to the invention of the formula 1 in cosmetic products, in medical devices and in pharmaceutical preparations.

In series [5] the test system is Brevibacterium epidermidis (ATCC 35514). The series can be described thus: quantitative suspension test. In kind it is cell-based.
In series [6] the test system is Staphylococcus epidermidis (ATCC 12228). Put plainly: turbidimetric growth-curve MIC determination. The format is cell-based. The following applies: turbidimetry 620 nm, 16 h, 37° C. An excerpt: (§1) The recognition that 3-(4-hydroxy-3-methoxyphenyl)-1-(4-hydroxyphenyl)-1-propanone of the formula 1 is very particularly suitable for combating microorganisms which are responsible for body odor is based on series of investigations relating to the particularly relevant microorganisms Staphylococcus epidermidis, Corynebacterium xerosis and Brevibacterium epidermidis. The antimicrobial action of 3-(4-hydroxy-3-methoxyphenyl)-1-(4-hydroxyphenyl)-1-propanone is here detected with the assistance of a turbidimetric measurement method. Turbidity measurement is used to establish growth curves for the particular microorganism in the presence and absence of an antimicrobial active ingredient. A possible inhibitory action of the test substance used is identified from the profile of the growth curves. Solutions with saline or DMSO for 100% growth are prepared as a negative control. The active substances to be investigated are first diluted in DMSO in reaction vessels. Dilution is carried out in accordance with the concentration range to be tested and corresponds in each case to 100 times the concentration of the subsequent final concentration in the test. Testing is usually begun with a final concentration of 2000 ppm in the test. Growth curves at final concentrations of 1000 ppm, 500 ppm, 250 ppm, 125 ppm, 64 ppm, 32 ppm, 16 ppm and 8 ppm are subsequently determined. The bacterial cultures are then incubated in the presence of the various final concentrations of antimicrobial active ingredient for 16 h (incubation temperature: 37° C.). The absorption values (wavelength 620 nm; measurement interval: 20 minutes) obtained over the 16 hour period of turbidimetric measurement are recorded and exported into the spreadsheet program MS Excel. Means from in each case three parallel batches are calculated and used as the basis for establishing growth curves. The curves of the individual test sample concentrations are compared with those for the negative controls and the MIC value (minimum inhibitory concentration) is determined. […]

The subject of series [7] is Corynebacterium xerosis (DSM 20743). Put plainly: turbidimetric growth-curve MIC determination. In kind it is cell-based. The following applies: DSM20743, turbidimetry 620 nm, 16 h, 37° C., read-out: MIC value (complete inhibition of growth).
Text: as §1

Series [8] has as its system Brevibacterium epidermidis (ATCC 35514). Put plainly: turbidimetric growth-curve MIC determination. Particulars: turbidimetry 620 nm, 16 h, 37° C. In kind it is cell-based.
Text: as §1

Values after ≈ are worked out from the molar mass of the structure shown.

Take `COc1cc(CCC(=O)c2ccc(O)cc2)ccc1O` [3-(4-hydroxy-3-methoxyphenyl)-1-(4-hydroxyphenyl)-1-propanone]: the antimicrobial activity entry in series [1], in series [3] and in series [5] was “confirm the antimicrobial activity” in each case. The “antimicrobial activity (body odor)” value in series [2] is reported as “confirm the antimicrobial activity”. Also, the temperature stability entry in series [4] is “elevated temperature stability”. Moreover, the “stability over pH values” in series [4] (wide range of pH values) was “high stability over a wide range of pH values”. Further, the “concentration giving inhibition of the growth” value in series [6] and in series [8] was “below 0.1 wt. %” each time. For the same compound, the MIC in series [7] was determined as 500 mg/L (≈ 1840 µM).

The term MIC denotes the least concentration at which growth counts as inhibited.

For the origin of these results see US8115033B2, “3-(4-hydroxy-3-methoxyphenyl)-1-(4-hydroxyphenyl)-1-propanone and use thereof as an antimicrobial active ingredient” (Symrise AG, priority 2007, dated 2012).
